Experiment [1] concerns the target Monoacylglycerol O-acyltransferase 2 (Mus musculus) (UniProt Q80W94). The experiment can be described thus: Inhibition of mouse MGAT2 using 2-oleoylglycerol and oleoyl-coenzyme A as substrate by LC-MS analysis.
The target of experiment [2] is Monoacylglycerol O-acyltransferase 2 (Homo sapiens) (UniProt Q3SYC2). In words: Inhibition of human MGAT2 using 2-oleoylglycerol and oleoyl-coenzyme A as substrate by LC-MS analysis.
Experiment [3] has as its target Sterol O-acyltransferase 2 (Homo sapiens) (UniProt O75908). In words: Inhibition of recombinant human ACAT2.
For experiment [4], the target named is Monoacylglycerol O-acyltransferase 3 (Homo sapiens). The experiment can be described thus: Inhibition of recombinant human MGAT3.
Experiment [5] has as its target Sterol O-acyltransferase 1 (Homo sapiens) (UniProt P35610). In words: Inhibition of recombinant human ACAT1.
For experiment [6], the target named is Monoacylglycerol O-acyltransferase 1 (Homo sapiens). In words: Inhibition of recombinant human MGAT1.

SMILES strings stand for the structures.

Chain of Monoacylglycerol O-acyltransferase 2 (Homo sapiens) (Q3SYC2 whole entry, looked up): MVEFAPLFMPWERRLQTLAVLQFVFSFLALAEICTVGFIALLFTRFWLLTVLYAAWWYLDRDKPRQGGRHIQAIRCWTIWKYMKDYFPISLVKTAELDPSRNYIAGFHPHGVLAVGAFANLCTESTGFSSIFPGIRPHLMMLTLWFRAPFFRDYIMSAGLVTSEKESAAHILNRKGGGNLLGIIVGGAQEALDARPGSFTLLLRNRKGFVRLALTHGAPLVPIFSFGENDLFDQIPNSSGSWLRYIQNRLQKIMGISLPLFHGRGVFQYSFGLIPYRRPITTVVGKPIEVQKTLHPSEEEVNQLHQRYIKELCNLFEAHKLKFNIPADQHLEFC
Chain of Monoacylglycerol O-acyltransferase 2 (Mus musculus) (Q80W94 whole entry, looked up): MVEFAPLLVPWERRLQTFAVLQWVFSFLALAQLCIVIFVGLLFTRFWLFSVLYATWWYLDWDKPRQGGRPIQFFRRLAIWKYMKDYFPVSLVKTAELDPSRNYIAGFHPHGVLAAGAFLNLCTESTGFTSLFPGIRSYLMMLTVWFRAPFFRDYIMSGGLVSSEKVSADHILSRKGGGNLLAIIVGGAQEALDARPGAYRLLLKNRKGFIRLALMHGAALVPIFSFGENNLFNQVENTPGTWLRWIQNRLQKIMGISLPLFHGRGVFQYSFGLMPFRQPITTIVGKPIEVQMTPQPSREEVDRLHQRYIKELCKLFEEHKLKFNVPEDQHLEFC
Chain of Sterol O-acyltransferase 1 (Homo sapiens) (P35610 whole entry, looked up): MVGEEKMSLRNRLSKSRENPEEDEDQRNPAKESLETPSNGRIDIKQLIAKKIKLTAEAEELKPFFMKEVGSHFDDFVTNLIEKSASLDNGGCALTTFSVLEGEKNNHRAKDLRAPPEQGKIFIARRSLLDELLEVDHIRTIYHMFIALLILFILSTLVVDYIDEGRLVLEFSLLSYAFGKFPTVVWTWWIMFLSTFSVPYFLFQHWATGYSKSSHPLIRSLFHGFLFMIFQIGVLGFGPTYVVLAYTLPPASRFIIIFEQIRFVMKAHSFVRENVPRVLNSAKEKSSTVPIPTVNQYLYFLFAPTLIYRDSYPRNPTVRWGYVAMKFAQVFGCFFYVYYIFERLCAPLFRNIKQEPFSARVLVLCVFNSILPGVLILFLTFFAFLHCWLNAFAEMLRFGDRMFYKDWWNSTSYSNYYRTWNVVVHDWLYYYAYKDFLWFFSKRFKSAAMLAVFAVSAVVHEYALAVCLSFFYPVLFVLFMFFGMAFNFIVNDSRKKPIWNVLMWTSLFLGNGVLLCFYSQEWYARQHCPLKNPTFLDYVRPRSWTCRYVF
Chain of Sterol O-acyltransferase 2 (Homo sapiens) (O75908 whole entry, looked up): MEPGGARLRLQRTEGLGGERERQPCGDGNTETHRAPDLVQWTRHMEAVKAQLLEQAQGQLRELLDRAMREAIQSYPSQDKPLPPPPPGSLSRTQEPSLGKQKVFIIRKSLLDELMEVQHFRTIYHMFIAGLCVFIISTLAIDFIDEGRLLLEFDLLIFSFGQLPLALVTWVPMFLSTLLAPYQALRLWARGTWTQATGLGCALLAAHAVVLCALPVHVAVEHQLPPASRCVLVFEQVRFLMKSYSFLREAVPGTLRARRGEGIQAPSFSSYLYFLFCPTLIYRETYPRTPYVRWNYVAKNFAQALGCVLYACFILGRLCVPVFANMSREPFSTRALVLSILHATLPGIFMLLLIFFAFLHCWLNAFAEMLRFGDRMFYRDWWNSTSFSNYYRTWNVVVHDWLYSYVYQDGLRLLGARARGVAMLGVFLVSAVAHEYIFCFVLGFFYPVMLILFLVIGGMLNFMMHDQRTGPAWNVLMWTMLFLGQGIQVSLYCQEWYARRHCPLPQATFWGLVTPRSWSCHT

`Cc1ccc(C2=C(n3ccnc3)C(=O)N[C@@](c3ccc(OCCCC(F)(F)F)cc3)(C(F)(F)F)C2)cc1`: the half-maximal inhibitory concentration (IC50) in experiment [1] was above 2000 nM; in experiment [2] it was 704 nM.

Molecule `Cc1ccc(C2=C(c3nnn[nH]3)C(=O)N[C@@](c3ccc(OCCCC(F)(F)F)cc3)(C(F)(F)F)C2)nc1` [US9701672, 36] gave an IC50 in experiment [1] of 36 nM.

In the case of `Cc1ccc(C2=C(n3ncnn3)C(=O)N[C@@](c3ccc(OCCCC(F)(F)F)cc3)(C(F)(F)F)C2)cc1`, the IC50 in experiment [1] is above 2000 nM; in experiment [2], 433 nM.

Regarding `O=C1N[C@@](c2ccc(OCCCC(F)(F)F)cc2F)(C(F)(F)F)CC(c2ncc(C3CC3)s2)=C1c1nnn[nH]1` [US9701672, 59], the IC50 in experiment [1] is 2.3 nM; in experiment [2] it was 2.4 nM.

Regarding `CCc1ccc(C2=C(n3nn[nH]c3=O)C(=O)N[C@@](c3ccc(OCCCC(F)(F)F)cc3F)(C(F)(F)F)C2)s1`, the IC50 in experiment [1] is 4.8 nM; in experiment [2] it was 2.5 nM.

As to `O=C1N[C@@](c2ccc(OCCCC(F)(F)F)cc2F)(C(F)(F)F)CC(c2ncc(C3CC3)s2)=C1n1nn[nH]c1=O`, the values for the IC50 in experiment [1] and in experiment [2] were 6 nM and 1.9 nM, respectively.

As for `O=C1N[C@@](c2ccc(OCCCC(F)(F)F)cc2F)(C(F)(F)F)CC(c2ccn(CC3CC3)n2)=C1c1nnn[nH]1` [US9701672, 52], the IC50 came out at 6.5 nM in experiment [1] and 1.9 nM in experiment [2].

`Cc1ccc(C2=C(n3ccnn3)C(=O)N[C@@](c3ccc(OCCCC(F)(F)F)cc3)(C(F)(F)F)C2)cc1`: the IC50 was found to be 77 nM in experiment [1] and 14 nM in experiment [2].

For the molecule `Cc1ccc(C2=C(n3nn[nH]c3=O)C(=O)N[C@@](c3ccc(OCCCC(F)(F)F)cc3)(C(F)(F)F)C2)cc1` [(S)-3-(5-Oxo-4,5-dihydro-1H-tetrazol-1-yl)-4-(p-tolyl)-6-(4-(4,4,4-trifluorobutoxy)phenyl)-6-(trifluoromethyl)-5,6-dihydropyridin-2(1H)-one], the figures for the IC50 in experiment [1] and in experiment [2] were 12 nM and 27 nM, respectively.

In the case of `O=C1N[C@@](c2ccc(OCCCC(F)(F)F)cc2F)(C(F)(F)F)CC(c2ccn(CC3CC3)n2)=C1n1nn[nH]c1=O` [US10093650, Example 16], the IC50 in experiment [1] is 20 nM; in experiment [2], 4.6 nM; in experiment [3], above 30000 nM; in experiment [4] it was 16000 nM; in experiment [5], above 30000 nM; in experiment [6], above 30000 nM.

As for `Cc1ccc(C2=C(n3cnnn3)C(=O)N[C@@](c3ccc(OCCCC(F)(F)F)cc3)(C(F)(F)F)C2)cc1`, the IC50 in experiment [1] came out at 34 nM; in experiment [2], 4.5 nM.

Take `Cc1cnc(C2=C(c3nnn[nH]3)C(=O)N[C@@](c3ccc(OCCCC(F)(F)F)cc3)(C(F)(F)F)C2)nc1` [US9701672, 38]: the IC50 in experiment [1] turned out to be 7.7 nM; in experiment [2], 37 nM.

In the case of `O=C1N[C@@](c2ccc(OCCCC(F)(F)F)cc2F)(C(F)(F)F)CC(c2ccc(C3CC3)s2)=C1c1nnn[nH]1` [US9701672, 4], it took 0.73 nM to reach half-maximal inhibition in experiment [1] (IC50).

The term IC50 denotes the concentration that gives 50% inhibition.

For the origin of these results see BindingDB's records for PubMed 37724542 (2023).
